Experimental data reported in the NIST ThermoML archive (doi:10.1016/j.jct.2019.02.020).
± gives the expanded uncertainty stated by the source.

Experiment: mn = molality of the nth substance listed, in mol/kg
Settings: 100 kPa, Liquid; for viscosity: Falling or rolling sphere viscometry; for mass density: Vibrating tube method

O=S(=O)([O-])[O-].[O]=[V+2] [oxovanadium(IV) sulfate] + O
viscosity (283.15 K, m1 = 0.2501): 1.551 ± 0.16 mPa·s | viscosity (283.15 K, m1 = 0.5): 1.861 ± 0.19 mPa·s | viscosity (283.15 K, m1 = 0.7507): 2.242 ± 0.22 mPa·s | viscosity (283.15 K, m1 = 0.9964): 2.697 ± 0.27 mPa·s | viscosity (283.15 K, m1 = 1.25): 3.308 ± 0.33 mPa·s | viscosity (283.15 K, m1 = 1.5): 4.052 ± 0.41 mPa·s | viscosity (283.15 K, m1 = 1.75): 4.966 ± 0.5 mPa·s | viscosity (283.15 K, m1 = 2): 6.108 ± 0.61 mPa·s | viscosity (283.15 K, m1 = 2.249): 7.543 ± 0.76 mPa·s | viscosity (283.15 K, m1 = 2.499): 9.273 ± 0.93 mPa·s | viscosity (283.15 K, m1 = 2.75): 11.55 ± 1.2 mPa·s | viscosity (288.15 K, m1 = 0.2501): 1.347 ± 0.14 mPa·s | viscosity (288.15 K, m1 = 0.5): 1.61 ± 0.16 mPa·s | viscosity (288.15 K, m1 = 0.7507): 1.932 ± 0.19 mPa·s | viscosity (288.15 K, m1 = 0.9964): 2.312 ± 0.23 mPa·s | viscosity (288.15 K, m1 = 1.25): 2.816 ± 0.28 mPa·s | viscosity (288.15 K, m1 = 1.5): 3.427 ± 0.34 mPa·s | viscosity (288.15 K, m1 = 1.75): 4.171 ± 0.42 mPa·s | viscosity (288.15 K, m1 = 2): 5.092 ± 0.51 mPa·s | viscosity (288.15 K, m1 = 2.249): 6.238 ± 0.63 mPa·s | viscosity (288.15 K, m1 = 2.499): 7.615 ± 0.76 mPa·s | viscosity (288.15 K, m1 = 2.75): 9.405 ± 0.94 mPa·s | viscosity (293.15 K, m1 = 0.2501): 1.183 ± 0.12 mPa·s | viscosity (293.15 K, m1 = 0.5): 1.409 ± 0.14 mPa·s | viscosity (293.15 K, m1 = 0.7507): 1.682 ± 0.17 mPa·s | viscosity (293.15 K, m1 = 0.9964): 2.005 ± 0.2 mPa·s | viscosity (293.15 K, m1 = 1.25): 2.429 ± 0.24 mPa·s | viscosity (293.15 K, m1 = 1.5): 2.936 ± 0.29 mPa·s | viscosity (293.15 K, m1 = 1.75): 3.548 ± 0.36 mPa·s | viscosity (293.15 K, m1 = 2): 4.304 ± 0.43 mPa·s | viscosity (293.15 K, m1 = 2.249): 5.238 ± 0.53 mPa·s | viscosity (293.15 K, m1 = 2.499): 6.348 ± 0.64 mPa·s | viscosity (293.15 K, m1 = 2.75): 7.784 ± 0.78 mPa·s | mass density (293.15 K, m1 = 0.2501): 1034.67 ± 25 kg/m3 | mass density (293.15 K, m1 = 0.5): 1069.8 ± 26 kg/m3 | mass density (293.15 K, m1 = 0.7507): 1104.11 ± 26 kg/m3 | mass density (293.15 K, m1 = 0.9964): 1136.2 ± 27 kg/m3 | mass density (293.15 K, m1 = 1.25): 1169.5 ± 28 kg/m3 | mass density (293.15 K, m1 = 1.5): 1201.04 ± 29 kg/m3 | mass density (293.15 K, m1 = 1.75): 1231.58 ± 30 kg/m3 | mass density (293.15 K, m1 = 2): 1261.16 ± 30 kg/m3 | mass density (293.15 K, m1 = 2.249): 1289.97 ± 31 kg/m3 | mass density (293.15 K, m1 = 2.499): 1317.94 ± 32 kg/m3 | mass density (293.15 K, m1 = 2.75): 1345.06 ± 32 kg/m3 | viscosity (298.15 K, m1 = 0.2501): 1.049 ± 0.11 mPa·s | viscosity (298.15 K, m1 = 0.5): 1.244 ± 0.12 mPa·s | viscosity (298.15 K, m1 = 0.7507): 1.479 ± 0.15 mPa·s | viscosity (298.15 K, m1 = 0.9964): 1.755 ± 0.18 mPa·s | viscosity (298.15 K, m1 = 1.25): 2.115 ± 0.21 mPa·s | viscosity (298.15 K, m1 = 1.5): 2.543 ± 0.26 mPa·s | viscosity (298.15 K, m1 = 1.75): 3.052 ± 0.31 mPa·s | viscosity (298.15 K, m1 = 2): 3.679 ± 0.37 mPa·s | viscosity (298.15 K, m1 = 2.249): 4.448 ± 0.45 mPa·s | viscosity (298.15 K, m1 = 2.499): 5.359 ± 0.54 mPa·s | viscosity (298.15 K, m1 = 2.75): 6.524 ± 0.65 mPa·s | viscosity (303.15 K, m1 = 0.2501): 0.9378 ± 0.094 mPa·s | viscosity (303.15 K, m1 = 0.5): 1.108 ± 0.11 mPa·s | viscosity (303.15 K, m1 = 0.7507): 1.311 ± 0.13 mPa·s | viscosity (303.15 K, m1 = 0.9964): 1.55 ± 0.16 mPa·s | viscosity (303.15 K, m1 = 1.25): 1.859 ± 0.19 mPa·s | viscosity (303.15 K, m1 = 1.5): 2.223 ± 0.22 mPa·s | viscosity (303.15 K, m1 = 1.75): 2.66 ± 0.27 mPa·s | viscosity (303.15 K, m1 = 2): 3.18 ± 0.32 mPa·s | viscosity (303.15 K, m1 = 2.249): 3.824 ± 0.38 mPa·s | viscosity (303.15 K, m1 = 2.499): 4.58 ± 0.46 mPa·s | viscosity (303.15 K, m1 = 2.75): 5.544 ± 0.56 mPa·s | mass density (303.15 K, m1 = 0.2501): 1031.66 ± 25 kg/m3 | mass density (303.15 K, m1 = 0.5): 1066.39 ± 26 kg/m3 | mass density (303.15 K, m1 = 0.7507): 1100.34 ± 26 kg/m3 | mass density (303.15 K, m1 = 0.9964): 1132.1 ± 27 kg/m3 | mass density (303.15 K, m1 = 1.25): 1165.09 ± 28 kg/m3 | mass density (303.15 K, m1 = 1.5): 1196.42 ± 29 kg/m3 | mass density (303.15 K, m1 = 1.75): 1226.74 ± 29 kg/m3 | mass density (303.15 K, m1 = 2): 1256.15 ± 30 kg/m3 | mass density (303.15 K, m1 = 2.249): 1284.81 ± 31 kg/m3 | mass density (303.15 K, m1 = 2.499): 1312.66 ± 32 kg/m3 | mass density (303.15 K, m1 = 2.75): 1339.67 ± 32 kg/m3 | viscosity (308.15 K, m1 = 0.2501): 0.8442 ± 0.085 mPa·s | viscosity (308.15 K, m1 = 0.5): 0.9929 ± 0.1 mPa·s | viscosity (308.15 K, m1 = 0.7507): 1.171 ± 0.12 mPa·s | viscosity (308.15 K, m1 = 0.9964): 1.379 ± 0.14 mPa·s | viscosity (308.15 K, m1 = 1.25): 1.646 ± 0.17 mPa·s | viscosity (308.15 K, m1 = 1.5): 1.959 ± 0.2 mPa·s | viscosity (308.15 K, m1 = 1.75): 2.334 ± 0.23 mPa·s | viscosity (308.15 K, m1 = 2): 2.783 ± 0.28 mPa·s | viscosity (308.15 K, m1 = 2.249): 3.32 ± 0.33 mPa·s | viscosity (308.15 K, m1 = 2.499): 3.953 ± 0.4 mPa·s | viscosity (308.15 K, m1 = 2.75): 4.758 ± 0.48 mPa·s | viscosity (313.15 K, m1 = 0.2501): 0.764 ± 0.077 mPa·s | viscosity (313.15 K, m1 = 0.5): 0.897 ± 0.09 mPa·s | viscosity (313.15 K, m1 = 0.7507): 1.053 ± 0.11 mPa·s | viscosity (313.15 K, m1 = 0.9964): 1.235 ± 0.12 mPa·s | viscosity (313.15 K, m1 = 1.25): 1.468 ± 0.15 mPa·s | viscosity (313.15 K, m1 = 1.5): 1.74 ± 0.17 mPa·s | viscosity (313.15 K, m1 = 1.75): 2.064 ± 0.21 mPa·s | viscosity (313.15 K, m1 = 2): 2.445 ± 0.25 mPa·s | viscosity (313.15 K, m1 = 2.249): 2.916 ± 0.29 mPa·s | viscosity (313.15 K, m1 = 2.499): 3.446 ± 0.35 mPa·s | viscosity (313.15 K, m1 = 2.75): 4.126 ± 0.41 mPa·s | viscosity (318.15 K, m1 = 0.2501): 0.6958 ± 0.07 mPa·s | viscosity (318.15 K, m1 = 0.5): 0.8143 ± 0.082 mPa·s | viscosity (318.15 K, m1 = 0.7507): 0.9528 ± 0.096 mPa·s | viscosity (318.15 K, m1 = 0.9964): 1.113 ± 0.11 mPa·s | viscosity (318.15 K, m1 = 1.25): 1.319 ± 0.13 mPa·s | viscosity (318.15 K, m1 = 1.5): 1.556 ± 0.16 mPa·s | viscosity (318.15 K, m1 = 1.75): 1.838 ± 0.18 mPa·s | viscosity (318.15 K, m1 = 2): 2.168 ± 0.22 mPa·s | viscosity (318.15 K, m1 = 2.249): 2.575 ± 0.26 mPa·s | viscosity (318.15 K, m1 = 2.499): 3.029 ± 0.3 mPa·s | viscosity (318.15 K, m1 = 2.75): 3.608 ± 0.36 mPa·s
